Earlier results on one compound are cited in patent US20250073219A1, “NEW COMPOSITION COMPRISING IMMUNOMODULATORY DRUG” (NANEXA AB, priority 2021, published 2025).

The conditions of the series: oral, about 25 mg once daily, plasma; cited from earlier work.

Regarding `Nc1cccc2c1CN(C1CCC(=O)NC1=O)C2=O` (stereo not drawn) [lenalidomide, 3-(4-amino-1-3-dihydro-l-ovo-2H-isoindol-2yl)-2,6-piperidinedione], the “Cmax obtained from a dosing regimen comprising orally administering an about 25 mg dose once daily” value is recorded as “about 568 ng/ml”.
